Experimental data from patent publication US11440922B2, “Heterocyclylmethylidene derivatives and their use as modulators of mGluR5 receptors” (Recordati Industria Chimica e Farmaceutica S.p.A., priority 2017, dated 2022).

Key:
human mGluR5 receptor = human mGluR5 receptor (Homo sapiens (Human), UniProt P41594); assay: Radioligand binding assay at cloned human mGluR5 receptor subtype ([3H]MPEP); conditions: 4 nM [3H]MPEP, CHO T-REx h-mGluR5 cells, 60 min at 25° C.; read-out: mGlu5 Ki
Excerpt: (§1) Cell lines stably transfected were generated using inducible expression vectors encoding human mGlu5 receptor using the Tetracycline-Regulated Expression system (T-REx™ system, Invitrogen, Life Technologies). Human mGluR5 open reading frame (ORF), comprehensive of the stop codon, were cloned into the pcDNA4/TO/myc-His™ A vector, carrying the TetO2. The insertion site was HindIII-PstI for mGluR5 receptors. The obtained constructs were then transfected into the T-REx CHO™ cell line using the FuGENE protocol (Roche); the CHO T-REx™ cell line stably expresses the Tet repressor (from the pcDNA6/TR plasmid) under the selection of blasticidin, 10 μg/ml. Stable clones were obtained selecting with zeocin 1 mg/ml and maintaining in ULTRA CHO medium (LONZA) supplemented with dialyzed FBS, zeocin, blasticidine, at 37° C., in an atmosphere of 5% CO2. The expression of h-mGluR5 receptors was de-repressed with 1 μg/ml tetracycline for 18 h before binding experimentation, while the expression of h-mGluR5 receptors was derepressed respectively with 3 ng/ml and 10 ng/ml tetracycline for 18 h before calcium fluorescence experimentation.
Radioligand Binding Assay at Cloned Human mGluR5 Receptor Subtype
Affinity at transmembrane glutamate metabotropic cloned human mGluR5 receptor was evaluated according to the methods of Anderson (Anderson et al., J Pharmacol. Exp. Ther., (2002), Vol. 303(3), pp. 1044-51), with some modifications. Human cloned mGluR5 was obtained by re-suspending CHO T-REx h-mGluR5 cells (50 μg/well) in 20 mM HEPES, 2 mM MgCl2, 2 mM CaCl2, pH 7.4, that then were incubated in a final volume of 1 ml for 60 min at 25° C. with 4 nM [^3H]MPEP in the absence or presence of competing drugs. Non-specific binding was determined in the presence of 10 μM MPEP. The incubation was stopped by addition of cold Tris buffer pH 7.4 and rapid filtration through 0.2% polyethyleneimine pretreated Filtermat 1204-401 (Perkin Elmer) filters. The filters were then washed with cold buffer and the radioactivity retained on the filters was counted by liquid scintillation spectrometry (Betaplate 1204 BS-Wallac).
(§2) The inhibition curves of the tested compounds at cloned mGluR5 subtypes were determined by nonlinear regression analysis using software Prism 4.0 (Graphpad, San Diego, Calif.). The IC50 values and pseudo-Hill slope coefficients were estimated by the program. The values for the inhibition constant, Ki, were calculated according to the equation Ki=IC50/(1+[L]/Kd), where [L] is the concentration of radioligand and Kd is the equilibrium dissociation constant of the radioligand-receptor complex (Cheng et al., Biochem. Pharmacol. (1973), Vol. 22, pp. 3099-3108).

human mGlu5 receptor [1] = molecular target: T1, human mGlu5 receptor (Homo sapiens (Human), UniProt P41594); assay: Calcium fluorescence measurements, antagonist potency (negative allosteric modulator activity); type: cell-based; conditions: EC80 of quisqualate as agonist, compounds applied 10 minutes before agonist
T1 sequence (P41594 21-1212): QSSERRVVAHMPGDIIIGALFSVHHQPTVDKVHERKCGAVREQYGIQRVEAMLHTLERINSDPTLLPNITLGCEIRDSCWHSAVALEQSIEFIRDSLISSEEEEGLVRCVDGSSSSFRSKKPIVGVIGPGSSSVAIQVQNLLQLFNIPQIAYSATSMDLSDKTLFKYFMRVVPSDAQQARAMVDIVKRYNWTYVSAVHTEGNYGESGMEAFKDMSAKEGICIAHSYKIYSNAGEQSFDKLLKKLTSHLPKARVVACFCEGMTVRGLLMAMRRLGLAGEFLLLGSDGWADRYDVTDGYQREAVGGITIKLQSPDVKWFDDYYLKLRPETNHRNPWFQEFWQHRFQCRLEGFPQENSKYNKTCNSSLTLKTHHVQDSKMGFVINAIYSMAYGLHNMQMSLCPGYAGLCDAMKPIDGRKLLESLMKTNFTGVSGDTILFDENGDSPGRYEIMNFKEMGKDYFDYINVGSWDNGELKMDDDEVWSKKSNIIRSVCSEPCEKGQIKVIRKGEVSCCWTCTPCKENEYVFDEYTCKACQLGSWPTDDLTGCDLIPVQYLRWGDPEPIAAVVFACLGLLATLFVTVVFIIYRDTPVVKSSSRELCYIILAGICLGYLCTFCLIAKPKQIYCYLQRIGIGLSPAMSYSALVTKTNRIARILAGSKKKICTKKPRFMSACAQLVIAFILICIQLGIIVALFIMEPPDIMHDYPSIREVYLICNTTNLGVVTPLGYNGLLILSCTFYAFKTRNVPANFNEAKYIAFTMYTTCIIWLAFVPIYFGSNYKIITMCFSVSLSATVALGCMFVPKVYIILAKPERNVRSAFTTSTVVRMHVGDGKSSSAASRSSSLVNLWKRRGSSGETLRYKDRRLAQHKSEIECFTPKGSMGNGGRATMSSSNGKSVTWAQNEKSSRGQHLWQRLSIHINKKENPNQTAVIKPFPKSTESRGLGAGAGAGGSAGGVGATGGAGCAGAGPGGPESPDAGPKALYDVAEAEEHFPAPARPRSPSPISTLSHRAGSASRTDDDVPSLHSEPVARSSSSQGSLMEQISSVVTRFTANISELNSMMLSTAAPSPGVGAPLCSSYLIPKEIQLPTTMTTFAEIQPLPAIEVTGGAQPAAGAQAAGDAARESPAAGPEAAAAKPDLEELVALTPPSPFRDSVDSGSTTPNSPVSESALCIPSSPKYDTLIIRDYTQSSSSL
Excerpt: as §1
(§3) Cells were seeded into black-walled, clear-bottom, 96-well plates at a density of 80000 cell/well, in RPMI (without Phenol Red, without L-glutamine; Gibco LifeTechnologies, CA) supplemented with 10% dialyzed FBS. Following 18-h incubation with tetracycline, the cells were loaded with […] Ca^2+-sensitive fluorescent dye Fluo-4/AM (Molecular Probes) in Hanks' balanced saline solution (HBSS, Gibco LifeTechnologies, CA) with […] Hepes (Sigma) and 2.5 mM probenecid (Sigma), for 1 h at 37° C. The cells were washed three times with HBSS to remove extracellular dye. Fluorescence signals were measured by using the fluorescence microplate reader Flexstation III (Molecular Devices) at sampling intervals of 1.5 s for 60 s.
(§4) The antagonist potency was determined using the EC80 of the quisqualate used as agonist and the potentiation of mGlu5 activation was determined using the EC20 of the agonist (quisqualate or glutamate). The compounds were applied 10 minutes before the application of the agonist.
(§5) The negative allosteric modulator activity (expressed as IC50) and the positive allosteric modulator activity (expressed as EC50) of the compounds of the invention for the mGlu5 receptors is between 0.1 and 1000 nM.
as §2

conscious rats = assay: Effect on cystometry in conscious rats; type: in vivo, rat; conditions: Minimal Effective Dose that induces statistically significant increase of bladder volume capacity
Method: Male Sprague-Dawley rats [Crl:CD(SD) IGS BR] of 300-400 g b.w. supplied by Charles River Italia were used. The animals were housed with free access to food and water and maintained on a forced 12-hour-light/12-hour-dark cycle at 22-24° C. of temperature, except during the experiment. To quantify urodynamic parameters in conscious rats, cystometrographic studies were performed according to the procedure previously reported (Guarneri et al., Pharmacol. Res. Vol. 24, No. 2, pp. 175-187, 1991).
Briefly, the rats were anaesthetized by intraperitoneal administration of 3 ml/kg of Equithensin solution (pentobarbital 30 mg/kg and chloral hydrate 125 mg/kg) and placed in a supine position. An approximately 10 mm long midline incision was made in the shaved and cleaned abdominal wall. The urinary bladder was gently freed from adhering tissues, emptied and then cannulated via an incision in the bladder body, using a polyethylene cannula (0.58 mm internal diameter, 0.96 mm external diameter) which was permanently sutured with silk thread. […]
On the day of the experiment, the rats were placed in modified Bollman cages, i.e., restraining cages that were large enough to permit the rats to adopt a normal crouched posture, but narrow enough to prevent turning around. […] The intraluminal-pressure signal during infusion of saline into the bladder (cystometrogram) was continuously recorded on a polygraph (Rectigraph-8K San-ei with BM614/2 amplifier from Biomedica Mangoni) or stored on PC by data acquisition system (PowerLab, Chart 4 software, AD Instruments). From the cystometrogram, bladder volume capacity (BVC) was evaluated. […] Basal BVC value was evaluated as the mean of the values observed in the cystometrograms recorded in an initial period of 30-60 minutes. […] The bladder infusion restarted and changes in BVC were evaluated from the mean values obtained in the cystometrograms observed during 1, 2, and 3 hours after treatment. […]
Each experimental group was composed of 4-11 animals. All data were expressed as mean±standard error. […]

human mGlu5 receptor [2] = molecular target: T1, human mGlu5 receptor; assay: Calcium fluorescence measurements, potentiation of mGlu5 activation (positive allosteric modulator activity); type: cell-based; conditions: EC20 of the agonist (quisqualate or glutamate), compounds applied 10 minutes before agonist
Excerpt: as §1, §3, §4, §5

human mGlu5 receptor [3] = molecular target: T1, human mGlu5 receptor; assay: Fold shift of agonist curve determination; type: cell-based; conditions: ratio of EC50 agonist (quisqualate or glutamate) curves in presence and in absence of test compound; compound at 1 μM
Excerpt: as §1, §3
The PAM potency was evaluated by performing an agonist concentration response curve in the presence of the compounds. The compounds at fixed concentration (0.01 or 0.1 or 1 μM) were applied 10 minutes before the incubation of the agonist (quisqualate or glutamate) dose-response curve. The fold shift was determined as ratio of EC50 agonist curves in presence and in absence of test compound. For instance, and in particular compound 34 has a fold shift of 2.7.

C57/BL/6J mice = assay: Novel object recognition test in mice; type: in vivo, mouse; conditions: intraperitoneal route, 30 min before training, memory assessed 24 h after training
Method: Novel object memory was assessed during three sessions. This task relies on the innate tendency of a mouse to explore unfamiliar objects vs. familiar objects. Testing was performed in an open-field arena. 24 h prior to training, C57/BL/6J 5-week male mice were habituated to the arena for 10 min (session 1).
During training, mice were administered by intraperitoneal route with the vehicle or the tested compound and after 30 min they were allowed for 5 min to explore two identical objects (A+A, session 2). Long-term object memory was assessed 24 h after the completion of training during which mice were given 5 min to explore the familiar (A) or the novel (B) object (A+B, session 3). The duration of exploration (defined as the mouse's snout or forelimbs physically touching or approaching within 1 cm of an object) of familiar and novel object was measured. The amount of time spent exploring the novel object over the total time exploring both novel and familiar object in each session was used to measure object memory.
For instance, and in particular the activity of compound of Example 34, expressed as MED (Minimal Effective Dose that induces statistically significant difference of exploration of the two objects) is of 10 mg/kg. Statistical analysis of exploration time values, was performed by using a paired Student's test, which was calculated using GraphPad Prisma 4.

human mGluR5 receptor, sequence (P41594 21-1212): as above

| Ki (human mGluR5 receptor) | IC50 (human mGlu5 receptor [1]) | EC50 (human mGlu5 receptor [2]) | mGlu5 Fold Shift @1 μM (human mGlu5 receptor [3]) | Compound | “In vivo” cystometry MED (mg/kg os) (conscious rats) | MED (Minimal Effective Dose that induces statistically significant difference of exploration of the two objects) (C57/BL/6J mice) |
| --- | --- | --- | --- | --- | --- | --- |
| 28.6 nM | 31.8 nM |  |  | CCOC(=O)N1CC/C(=C\C#Cc2cc(OC)ccn2)C(C)(C)C1 [Example 25, ethyl (4E)-4-[3-(4-methoxypyridin-2-yl)prop-2-yn-1-ylidene]-3,3-dimethylpiperidine-1-carboxylate] |  |  |
| 0.64 nM | 8.6 nM |  |  | CCOC(=O)N1CC/C(=C\C#Cc2cccc(C#N)c2)C(C)(C)C1 [Example 27, ethyl (4E)-4-[3-(3-cyanophenyl)prop-2-yn-1-ylidene]-3,3-dimethylpiperidine-1-carboxylate] |  |  |
| 2.12 nM | 37.2 nM |  |  | CCOC(=O)N1CC/C(=C\C#Cc2cccc(CC#N)c2)C(C)(C)C1 [Example 28, ethyl (4E)-4-{3-[3-(cyanomethyl)phenyl]prop-2-yn-1-ylidene}-3,3-dimethylpiperidine-1-carboxylate] |  |  |
| 2.93 nM | 13.5 nM |  |  | CCOC(=O)N1CC/C(=C\C#Cc2cc(C#N)ccn2)C(C)(C)C1 [Example 31, ethyl (4E)-4-[3-(4-cyanopyridin-2-yl)prop-2-yn-1-ylidene]-3,3-dimethylpiperidine-1-carboxylate] | 1 mg/kg |  |
| 16.1 nM | 60 nM |  |  | CCOC(=O)N1CC/C(=C\C#Cc2cc(F)cc(C#N)c2)C(C)(C)C1 [Example 32, ethyl (4E)-4-[3-(3-cyano-5-fluorophenyl)prop-2-yn-1-ylidene]-3,3-dimethylpiperidine-1-carboxylate] |  |  |
| 0.99 nM |  | 107 nM | 2.7 | CC1(C)CN(C(=O)c2cccc(Cl)c2)CC/C1=C\C#Cc1cccc(Cl)c1 [Example 34, (3-chlorophenyl){(4E)-4-[3-(3-chlorophenyl)prop-2-yn-1-ylidene]-3,3-dimethylpiperidin-1-yl}methanone] |  | 10 mg/kg |
| 1.29 nM | 18.2 nM |  |  | COC(=O)N1CC/C(=C\C#Cc2cccc(Cl)c2)C(C)(C)C1 [Example 40, methyl (4E)-4-[3-(3-chlorophenyl)prop-2-yn-1-ylidene]-3,3-dimethylpiperidine-1-carboxylate] | 3 mg/kg |  |
| 2.44 nM | 2.02 nM |  |  | CCOC(=O)N1CC/C(=C\C#Cc2cccc(C)n2)C1(C)C [Example 48, ethyl (3E)-2,2-dimethyl-3-[3-(6-methylpyridin-2-yl)prop-2-yn-1-ylidene]pyrrolidine-1-carboxylate] | 1 mg/kg |  |
| 16.3 nM | 31.6 nM |  |  | CCOC(=O)N1CC/C(=C\C#Cc2cc(Cl)ccn2)C1(C)C [Example 91, ethyl (3E)-3-[3-(4-chloropyridin-2-yl)prop-2-yn-1-ylidene]-2,2-dimethylpyrrolidine-1-carboxylate] |  |  |
| 11.2 nM | 66.3 nM |  |  | CCOC(=O)N1CC/C(=C\C#Cc2cccc(Cl)c2)C1(C)C [Example 101, ethyl (3E)-3-[3-(3-chlorophenyl)prop-2-yn-1-ylidene]-2,2-dimethylpyrrolidine-1-carboxylate] |  |  |
